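GI50 marks 50% less growth. TGI is the concentration that stops growth completely.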
Legend:
Test in all cases: inhibition of tumour cell growth, NCI panel, 384-well format
[1] = tested on: 786-0 renal
[2] = tested on: A498 renal
[3] = tested on: A549 NSCLC
[4] = tested on: ACHN renal
[5] = tested on: BT-549 breast
[6] = tested on: CAKI-1 renal
[7] = tested on: CCRF-CEM leukemia
[8] = tested on: COLO 205 colon
[9] = tested on: DU-145 prostate
[10] = tested on: EKVX NSCLC
[11] = tested on: HCC-2998 colon
[12] = tested on: HCT-116 colon
[13] = tested on: HCT-15 colon
[14] = tested on: HL-60(TB) leukemia
[15] = tested on: HOP-62 NSCLC
[16] = tested on: HOP-92 NSCLC
[17] = tested on: HS 578T breast
[18] = tested on: HT29 colon
[19] = tested on: IGROV1 ovarian
[20] = tested on: K-562 leukemia
[21] = tested on: KM12 colon
[22] = tested on: LOX IMVI melanoma
[23] = tested on: M14 melanoma
[24] = tested on: MALME-3M melanoma
[25] = tested on: MCF7 breast
[26] = tested on: MDA-MB-231 breast
[27] = tested on: MDA-MB-435 melanoma
[28] = tested on: MDA-MB-468 breast
[29] = tested on: MOLT-4 leukemia
[30] = tested on: NCI-H226 lung
[31] = tested on: NCI-H23 lung
[32] = tested on: NCI-H322M lung
[33] = tested on: NCI-H460 NSCLC
[34] = tested on: NCI-H522 lung
[35] = tested on: NCI/ADR-RES ovarian
[36] = tested on: OVCAR-3 ovarian
[37] = tested on: OVCAR-4 ovarian
[38] = tested on: OVCAR-5 ovarian
[39] = tested on: OVCAR-8 ovarian
[40] = tested on: PC-3 prostate
[41] = tested on: RPMI-8226 leukemia
[42] = tested on: RXF 393 renal
[43] = tested on: SF-268 CNS
[44] = tested on: SF-295 CNS
[45] = tested on: SF-539 CNS
[46] = tested on: SK-MEL-2 melanoma
[47] = tested on: SK-MEL-28 melanoma
[48] = tested on: SK-MEL-5 melanoma
[49] = tested on: SK-OV-3 ovarian
[50] = tested on: SN12C renal
[51] = tested on: SNB-19 CNS
[52] = tested on: SNB-75 CNS
[53] = tested on: SW-620 colon
[54] = tested on: T-47D breast
[55] = tested on: TK-10 renal
[56] = tested on: U251 glioblastoma
[57] = tested on: UACC-257 melanoma
[58] = tested on: UACC-62 melanoma
[59] = tested on: UO-31 renal

Question: `CCNC(=O)Nc1ccc(-c2nc3c(c(N4CCOC[C@@H]4C)n2)CCN(C2COC2)C3)cc1` was tested. Which GI50 [1] did it give?
Answer: Its GI50 is 1190 nM.

Question: And the TGI [1]?
Answer: Its TGI is over 100000 nM.

Question: What about the GI50 [2] of the same molecule?
Answer: Its GI50 is 93.8 nM.

Question: And the TGI [2]?
Answer: The TGI was 1900 nM.

Question: And the GI50 [3]?
Answer: Its GI50 is 480 nM.

Question: What about the TGI [3] of the same molecule?
Answer: Its TGI is over 100000 nM.

Question: And the GI50 [4]?
Answer: The GI50 was 485 nM.

Question: What about the TGI [4] of the same molecule?
Answer: Its TGI is over 100000 nM.

Question: And the GI50 [5]?
Answer: Its GI50 is 220 nM.

Question: What about the TGI [5] of the same molecule?
Answer: Its TGI is 2560 nM.

Question: And the GI50 [6]?
Answer: The GI50 was 323 nM.

Question: What about the TGI [6] of the same molecule?
Answer: The TGI was 4100 nM.

Question: And the GI50 [7]?
Answer: Its GI50 is 325 nM.

Question: What about the TGI [7] of the same molecule?
Answer: The TGI was 19800 nM.

Question: What about the GI50 [8] of the same molecule?
Answer: Its GI50 is 347 nM.

Question: And the TGI [8]?
Answer: Its TGI is over 100000 nM.

Question: And the GI50 [9]?
Answer: Its GI50 is 640 nM.

Question: What about the TGI [9] of the same molecule?
Answer: Its TGI is over 100000 nM.

Question: What about the GI50 [10] of the same molecule?
Answer: The GI50 was 381 nM.

Question: And the TGI [10]?
Answer: The TGI was 9360 nM.

Question: What about the GI50 [11] of the same molecule?
Answer: Its GI50 is 440 nM.

Question: What about the TGI [11] of the same molecule?
Answer: Its TGI is over 100000 nM.

Question: And the GI50 [12]?
Answer: The GI50 was 3280 nM.

Question: And the TGI [12]?
Answer: Its TGI is over 100000 nM.

Question: What about the GI50 [13] of the same molecule?
Answer: Its GI50 is 669 nM.

Question: And the TGI [13]?
Answer: Its TGI is over 100000 nM.

Question: What about the GI50 [14] of the same molecule?
Answer: The GI50 was 5400 nM.

Question: And the TGI [14]?
Answer: Its TGI is over 100000 nM.

Question: And the GI50 [15]?
Answer: Its GI50 is 494 nM.

Question: What about the TGI [15] of the same molecule?
Answer: Its TGI is 11000 nM.

Question: And the GI50 [16]?
Answer: The GI50 was 605 nM.

Question: What about the TGI [16] of the same molecule?
Answer: The TGI was 8680 nM.

Question: What about the GI50 [17] of the same molecule?
Answer: The GI50 was 116 nM.

Question: What about the TGI [17] of the same molecule?
Answer: Its TGI is 596 nM.

Question: And the GI50 [18]?
Answer: The GI50 was 4780 nM.

Question: What about the TGI [18] of the same molecule?
Answer: The TGI was over 100000 nM.

Question: What about the GI50 [19] of the same molecule?
Answer: The GI50 was 147 nM.

Question: What about the TGI [19] of the same molecule?
Answer: Its TGI is 885 nM.

Question: And the GI50 [20]?
Answer: Its GI50 is 752 nM.

Question: What about the TGI [20] of the same molecule?
Answer: The TGI was over 100000 nM.

Question: And the GI50 [21]?
Answer: Its GI50 is 479 nM.

Question: And the TGI [21]?
Answer: The TGI was over 100000 nM.

Question: And the GI50 [22]?
Answer: The GI50 was 658 nM.

Question: What about the TGI [22] of the same molecule?
Answer: The TGI was 13800 nM.

Question: What about the GI50 [23] of the same molecule?
Answer: Its GI50 is 416 nM.

Question: And the TGI [23]?
Answer: Its TGI is over 100000 nM.

Question: And the GI50 [24]?
Answer: The GI50 was 167 nM.

Question: And the TGI [24]?
Answer: Its TGI is 3020 nM.

Question: And the GI50 [25]?
Answer: Its GI50 is 131 nM.

Question: What about the TGI [25] of the same molecule?
Answer: Its TGI is 68600 nM.

Question: And the GI50 [26]?
Answer: Its GI50 is 476 nM.

Question: What about the TGI [26] of the same molecule?
Answer: Its TGI is over 100000 nM.

Question: What about the GI50 [27] of the same molecule?
Answer: Its GI50 is 716 nM.

Question: What about the TGI [27] of the same molecule?
Answer: Its TGI is 7410 nM.

Question: And the GI50 [28]?
Answer: The GI50 was 173 nM.

Question: And the TGI [28]?
Answer: The TGI was 2380 nM.

Question: And the GI50 [29]?
Answer: Its GI50 is 207 nM.

Question: And the TGI [29]?
Answer: Its TGI is 11100 nM.

Question: What about the GI50 [30] of the same molecule?
Answer: Its GI50 is 207 nM.

Question: And the TGI [30]?
Answer: Its TGI is 3330 nM.

Question: And the GI50 [31]?
Answer: Its GI50 is 1910 nM.

Question: And the TGI [31]?
Answer: The TGI was over 100000 nM.

Question: And the GI50 [32]?
Answer: The GI50 was 527 nM.

Question: What about the TGI [32] of the same molecule?
Answer: Its TGI is over 100000 nM.

Question: And the GI50 [33]?
Answer: Its GI50 is 108 nM.

Question: What about the TGI [33] of the same molecule?
Answer: Its TGI is over 100000 nM.

Question: And the GI50 [34]?
Answer: Its GI50 is 159 nM.

Question: What about the TGI [34] of the same molecule?
Answer: The TGI was 8130 nM.

Question: And the GI50 [35]?
Answer: The GI50 was 11400 nM.

Question: What about the TGI [35] of the same molecule?
Answer: Its TGI is over 100000 nM.

Question: What about the GI50 [36] of the same molecule?
Answer: Its GI50 is 445 nM.

Question: What about the TGI [36] of the same molecule?
Answer: Its TGI is over 100000 nM.

Question: What about the GI50 [37] of the same molecule?
Answer: Its GI50 is 279 nM.

Question: What about the TGI [37] of the same molecule?
Answer: The TGI was 3450 nM.

Question: And the GI50 [38]?
Answer: The GI50 was 1040 nM.

Question: And the TGI [38]?
Answer: Its TGI is over 100000 nM.

Question: What about the GI50 [39] of the same molecule?
Answer: The GI50 was 966 nM.

Question: What about the TGI [39] of the same molecule?
Answer: Its TGI is over 100000 nM.

Question: And the GI50 [40]?
Answer: The GI50 was 218 nM.

Question: And the TGI [40]?
Answer: Its TGI is over 100000 nM.

Question: What about the GI50 [41] of the same molecule?
Answer: The GI50 was 38.7 nM.

Question: What about the TGI [41] of the same molecule?
Answer: The TGI was 276 nM.

Question: And the GI50 [42]?
Answer: The GI50 was 212 nM.

Question: And the TGI [42]?
Answer: Its TGI is 2130 nM.

Question: What about the GI50 [43] of the same molecule?
Answer: The GI50 was 1220 nM.

Question: And the TGI [43]?
Answer: The TGI was over 100000 nM.

Question: What about the GI50 [44] of the same molecule?
Answer: The GI50 was 305 nM.

Question: And the TGI [44]?
Answer: Its TGI is 2540 nM.

Question: And the GI50 [45]?
Answer: The GI50 was 656 nM.

Question: What about the TGI [45] of the same molecule?
Answer: Its TGI is over 100000 nM.

Question: And the GI50 [46]?
Answer: The GI50 was 1890 nM.

Question: What about the TGI [46] of the same molecule?
Answer: Its TGI is 7590 nM.

Question: What about the GI50 [47] of the same molecule?
Answer: Its GI50 is 443 nM.

Question: And the TGI [47]?
Answer: Its TGI is 28000 nM.

Question: And the GI50 [48]?
Answer: Its GI50 is 221 nM.

Question: What about the TGI [48] of the same molecule?
Answer: Its TGI is 2260 nM.

Question: And the GI50 [49]?
Answer: The GI50 was 189 nM.

Question: And the TGI [49]?
Answer: Its TGI is 5370 nM.

Question: And the GI50 [50]?
Answer: Its GI50 is 310 nM.

Question: And the TGI [50]?
Answer: Its TGI is over 100000 nM.

Question: And the GI50 [51]?
Answer: The GI50 was 2820 nM.

Question: What about the TGI [51] of the same molecule?
Answer: The TGI was over 100000 nM.

Question: What about the GI50 [52] of the same molecule?
Answer: The GI50 was 46.2 nM.

Question: And the TGI [52]?
Answer: Its TGI is 980 nM.

Question: And the GI50 [53]?
Answer: The GI50 was 2280 nM.

Question: What about the TGI [53] of the same molecule?
Answer: Its TGI is over 100000 nM.

Question: And the GI50 [54]?
Answer: Its GI50 is 26.3 nM.

Question: And the TGI [54]?
Answer: Its TGI is 437 nM.

Question: What about the GI50 [55] of the same molecule?
Answer: The GI50 was 390 nM.

Question: What about the TGI [55] of the same molecule?
Answer: Its TGI is 5650 nM.

Question: What about the GI50 [56] of the same molecule?
Answer: Its GI50 is 1350 nM.

Question: What about the TGI [56] of the same molecule?
Answer: Its TGI is over 100000 nM.

Question: And the GI50 [57]?
Answer: The GI50 was 1450 nM.

Question: And the TGI [57]?
Answer: The TGI was 14600 nM.

Question: What about the GI50 [58] of the same molecule?
Answer: The GI50 was 366 nM.

Question: What about the TGI [58] of the same molecule?
Answer: The TGI was 3810 nM.

Question: What about the GI50 [59] of the same molecule?
Answer: The GI50 was 654 nM.

Question: And the TGI [59]?
Answer: The TGI was over 100000 nM.

Reference: PubChem BioAssay (NCI)
